PubChem BioAssay AID192 (DTP/NCI, 2004)
Several values for one entry are separate records, joined by “and”; a condition that tells them apart may be missing. Identical values can stand only once. Toxic doses and inconclusive results are not listed. The calls were made as follows: active = survival T/C of 150% or more; inactive = T/C below 125% in these data.

System: BDF1 mice, B16 melanoma ip, median survival T/C
Test: NCI In Vivo Anticancer Drug Screen. Data for tumor model B16 Melanoma (intraperitoneal) in B6D2F1 (BDF1) mice
Conditions: endpoint: median survival time, higher = longer survival
Method in brief: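 Antitumor activity is assessed in mice bearing a transplanted tumor, with survival or tumor size compared against vehicle-dosed controls and expressed as T/C.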

[1] = dose: 25.0 micrograms/kg/injection, schedule: Q01DX009 (ip), vehicle: saline
[2] = dose: 50.0 micrograms/kg/injection, schedule: Q01DX009 (ip), vehicle: saline
[3] = dose: 200.0 micrograms/kg/injection, schedule: Q01DX009 (ip), vehicle: saline
[4] = dose: 100.0 mg/kg/injection, schedule: Q04DX003 (ip), vehicle: Klucel (hydroxypropylcellulose) (HPC)
[5] = dose: 200.0 mg/kg/injection, schedule: Q04DX003 (ip), vehicle: Klucel (hydroxypropylcellulose) (HPC)
[6] = dose: 50.0 mg/kg/injection, schedule: Q01DX009 (ip), vehicle: water
[7] = dose: 100.0 mg/kg/injection, schedule: Q04DX003 (ip), vehicle: saline with Tween-80
[8] = dose: 200.0 mg/kg/injection, schedule: Q04DX003 (ip), vehicle: saline with Tween-80
[9] = dose: 1.56 mg/kg/injection, schedule: Q01DX009 (ip), vehicle: Klucel (hydroxypropylcellulose) (HPC)
[10] = dose: 3.12 mg/kg/injection, schedule: Q01DX009 (ip), vehicle: Klucel (hydroxypropylcellulose) (HPC)
[11] = dose: 6.25 mg/kg/injection, schedule: Q01DX009 (ip), vehicle: Klucel (hydroxypropylcellulose) (HPC)
[12] = dose: 12.5 mg/kg/injection, schedule: Q01DX009 (ip), vehicle: Klucel (hydroxypropylcellulose) (HPC)
[13] = dose: 25.0 mg/kg/injection, schedule: Q01DX009 (ip), vehicle: Klucel (hydroxypropylcellulose) (HPC)
[14] = dose: 50.0 mg/kg/injection, schedule: Q01DX009 (ip), vehicle: Klucel (hydroxypropylcellulose) (HPC)
[15] = dose: 100.0 mg/kg/injection, schedule: Q01DX009 (ip), vehicle: saline with Tween-80
[16] = dose: 200.0 mg/kg/injection, schedule: Q01DX009 (ip), vehicle: saline with Tween-80
[17] = dose: 25.0 mg/kg/injection, schedule: Q01DX009 (ip), vehicle: saline with Tween-80
[18] = dose: 50.0 mg/kg/injection, schedule: Q01DX009 (ip), vehicle: saline with Tween-80
[19] = dose: 0.2 mg/kg/injection, schedule: Q01DX009 (ip), vehicle: saline
[20] = dose: 0.4 mg/kg/injection, schedule: Q01DX009 (ip), vehicle: saline
[21] = dose: 6.25 mg/kg/injection, schedule: Q01DX009 (ip), vehicle: saline with Tween-80
[22] = dose: 12.5 mg/kg/injection, schedule: Q01DX009 (ip), vehicle: saline with Tween-80

Measured: T/C

NC1=C(N2CC2)C(=O)C(N)=C(N2CC2)C1=O
inactive: dose: 6.0 micrograms/kg/injection, schedule: Q01DX009 (ip), vehicle: saline 112 % of control | dose: 12.5 micrograms/kg/injection, schedule: Q01DX009 (ip), vehicle: saline 112 % of control | [1] 105 % of control | [2] 120 % of control | [3] 124 % of control

CS(=O)(=O)OCC1CCCCO1 (centres undefined)
inactive: [4] 92 % of control and 100 % of control | [5] 100 % of control | dose: 400.0 mg/kg/injection, schedule: Q04DX003 (ip), vehicle: Klucel (hydroxypropylcellulose) (HPC) 104 % of control and 108 % of control

CCCCn1ccnc1C
inactive: dose: 6.25 mg/kg/injection, schedule: Q01DX009 (ip), vehicle: water 106 % of control | dose: 12.5 mg/kg/injection, schedule: Q01DX009 (ip), vehicle: water 91 % of control | dose: 25.0 mg/kg/injection, schedule: Q01DX009 (ip), vehicle: water 101 % of control | [6] 102 % of control

CS(=N)(=O)c1ccccc1 (centres undefined)
inactive: [7] 89 % of control | [8] 100 % of control | dose: 400.0 mg/kg/injection, schedule: Q04DX003 (ip), vehicle: saline with Tween-80 123 % of control

CCOC(=O)C(Cc1ccccc1)NP(=O)(OCCCl)OCCCl (centres undefined)
inactive: [4] 104 % of control | [5] 86 % of control

CCOc1nsc(OCC)n1
inactive: dose: 12.5 mg/kg/injection, schedule: Q04DX003 (ip), vehicle: distilled water + Tween-80 103 % of control | dose: 25.0 mg/kg/injection, schedule: Q04DX003 (ip), vehicle: distilled water + Tween-80 96 % of control | dose: 50.0 mg/kg/injection, schedule: Q04DX003 (ip), vehicle: distilled water + Tween-80 99 % of control | dose: 100.0 mg/kg/injection, schedule: Q04DX003 (ip), vehicle: distilled water + Tween-80 98 % of control

Nc1nc(N)c2cc(CNc3ccc(C(=O)NC(CC(=O)O)CC(=O)O)cc3)ccc2n1
inactive: dose: 0.04 mg/kg/injection, schedule: Q01DX009 (ip), vehicle: Klucel (hydroxypropylcellulose) (HPC) 109 % of control | dose: 0.09 mg/kg/injection, schedule: Q01DX009 (ip), vehicle: Klucel (hydroxypropylcellulose) (HPC) 95 % of control | dose: 0.19 mg/kg/injection, schedule: Q01DX009 (ip), vehicle: Klucel (hydroxypropylcellulose) (HPC) 104 % of control | dose: 0.39 mg/kg/injection, schedule: Q01DX009 (ip), vehicle: Klucel (hydroxypropylcellulose) (HPC) 95 % of control | dose: 0.78 mg/kg/injection, schedule: Q01DX009 (ip), vehicle: Klucel (hydroxypropylcellulose) (HPC) 95 % of control and 112 % of control | [9] 112 % of control | [10] 93 % of control | [11] 93 % of control | [12] 90 % of control and 101 % of control and 102 % of control | [13] 98 % of control and 124 % of control | [14] 99 % of control

COc1cc2c(cc1O)C(=O)CCCC2
inactive: [15] 107 % of control | [16] 101 % of control | dose: 400.0 mg/kg/injection, schedule: Q01DX009 (ip), vehicle: saline with Tween-80 89 % of control and 101 % of control

Cc1ccc(Cl)cc1NC(=O)COc1ccc(Cl)cc1
inactive: [17] 92 % of control | [18] 91 % of control | [15] 88 % of control

COC1=C(N)C(=O)c2nc(-c3nc(C(=O)O)c(C)c(-c4ccc(OC)c(OC)c4O)c3N)ccc2C1=O
inactive: dose: 0.03 mg/kg/injection, schedule: Q01DX009 (ip), vehicle: saline 113 % of control | dose: 0.05 mg/kg/injection, schedule: Q01DX009 (ip), vehicle: saline 102 % of control | dose: 0.1 mg/kg/injection, schedule: Q01DX009 (ip), vehicle: saline 102 % of control | [19] 113 % of control | [20] 100 % of control | [1] 100 % of control | [2] 111 % of control | dose: 100.0 micrograms/kg/injection, schedule: Q01DX009 (ip), vehicle: saline 112 % of control | [3] 104 % of control

Nc1nc(=S)c2[nH]c(N=Nc3ccc(S(=O)(=O)Nc4ncccn4)cc3)nc2[nH]1
inactive: [9] 95 % of control | [10] 102 % of control | [11] 113 % of control | [12] 102 % of control

CCO/C([O-])=C/[P+](c1ccccc1)(c1ccccc1)c1ccccc1
inactive: [12] 103 % of control | [13] 103 % of control | [14] 100 % of control

CCOC(=O)C(=O)C(C#N)C(=O)OCC (centres undefined)
inactive: [10] 88 % of control | [11] 109 % of control | dose: 8.2 mg/kg/injection, schedule: Q01DX009 (ip), vehicle: Klucel (hydroxypropylcellulose) (HPC) 100 % of control | [12] 96 % of control and 100 % of control | dose: 18.0 mg/kg/injection, schedule: Q01DX009 (ip), vehicle: Klucel (hydroxypropylcellulose) (HPC) 96 % of control and 105 % of control

CCCCC(CC)COP(OCC(CC)CCCC)OCC(CC)CCCC (centres undefined)
inactive: [7] 93 % of control | [8] 86 % of control

CC(=O)C1(O)CCCCC1
inactive: dose: 100.0 mg/kg/injection, schedule: Q04DX003 (ip), vehicle: saline 95 % of control | dose: 200.0 mg/kg/injection, schedule: Q04DX003 (ip), vehicle: saline 100 % of control | dose: 400.0 mg/kg/injection, schedule: Q04DX003 (ip), vehicle: saline 100 % of control

ClC(Cl)(Cl)c1nc2nccnc2[nH]1
inactive: dose: 3.13 mg/kg/injection, schedule: Q01DX009 (ip), vehicle: saline with Tween-80 102 % of control | [21] 94 % of control | [22] 105 % of control | [17] 91 % of control

O=C(C=C(C(F)(F)F)C(F)(F)F)c1cccc([N+](=O)[O-])c1
inactive: [19] 95 % of control | [20] 102 % of control | dose: 0.8 mg/kg/injection, schedule: Q01DX009 (ip), vehicle: saline 95 % of control | [21] 86 % of control | dose: 6.25 mg/kg/injection, schedule: Q04DX003 (ip), vehicle: saline with Tween-80 113 % of control | dose: 25.0 mg/kg/injection, schedule: Q04DX003 (ip), vehicle: saline with Tween-80 111 % of control

CC(=O)CCCc1ccccc1
inactive: dose: 100.0 mg/kg/injection, schedule: Q01DX009 (ip), vehicle: saline 112 % of control | dose: 200.0 mg/kg/injection, schedule: Q01DX009 (ip), vehicle: saline 116 % of control | dose: 400.0 mg/kg/injection, schedule: Q01DX009 (ip), vehicle: saline 98 % of control

C1=CC2CC3(OCCO3)C2C1 (centres undefined)
inactive: [18] 88 % of control | [15] 106 % of control | [16] 93 % of control

CCN(CC)CCNc1ccc(CO)c2sc3ccccc3c(=O)c12
inactive: dose: 0.25 mg/kg/injection, schedule: Q01DX009 (ip), vehicle: saline 100 % of control | dose: 0.5 mg/kg/injection, schedule: Q01DX009 (ip), vehicle: saline 94 % of control | dose: 1.0 mg/kg/injection, schedule: Q01DX009 (ip), vehicle: saline 89 % of control | dose: 2.0 mg/kg/injection, schedule: Q01DX009 (ip), vehicle: saline 100 % of control | dose: 2.4 mg/kg/injection, schedule: Q01DX009 (ip), vehicle: saline with Tween-80 89 % of control | dose: 4.8 mg/kg/injection, schedule: Q01DX009 (ip), vehicle: saline with Tween-80 97 % of control | dose: 9.5 mg/kg/injection, schedule: Q01DX009 (ip), vehicle: saline with Tween-80 105 % of control | dose: 19.0 mg/kg/injection, schedule: Q01DX009 (ip), vehicle: saline with Tween-80 97 % of control | dose: 38.0 mg/kg/injection, schedule: Q01DX009 (ip), vehicle: saline with Tween-80 110 % of control

O=C(CC(=O)C(F)(F)F)c1csc2ccccc12
inactive: [22] 102 % of control | [17] 97 % of control | [18] 114 % of control

CN(C)CCSc1cc(O)c2c(c1O)C(=O)c1ccccc1C2=O
inactive: [6] 94 % of control | dose: 100.0 mg/kg/injection, schedule: Q01DX009 (ip), vehicle: water 102 % of control
